Results: patent publication US11992011B2, “Compounds for controlling plant pathogens” (VIB VZW, priority 2017, dated 2024)

System: Pseudomonas syringae (pv. DC3000)
Assay: Pseudomonas syringae infection experiment in tomato (Example 21)
Assay type: in vivo
Conditions: PA foliar spray
Procedure: Tomato plants (Solanum lycopersicum cv. Moneymaker) were grown in potting soil as described in the plant materials section until the fourth leaf stage. Plants were treated with a piperonylic acid or control spray as described in the chemicals section. Twenty-four hours before inoculation, the tomato plants were placed in a sealed cloche to keep humidity at 100%.
A glycerol stock of P. syringae pv. DC3000 kept at−80° C. was spotted on petri dishes containing King's B agar amended with 75 μg/ml rifampicine (Duchefa Biochemie, Haarlem, the Netherlands). The plates were incubated in the dark at 28° C. for one week. At this time point, glass test tubes containing 5 ml of liquid King's B each (without rifampicin) were inoculated with cells from the plates and placed on an orbital shaker at 200 rpm for 24 hours at 28° C. 100 μl of this liquid inoculum was transferred to fresh glass test tubes containing 5 ml of liquid King's B each (without rifampicin), which were placed on an orbital shaker at 200 rpm for 24 hours at 28° C.
At this time point, the liquid culture was diluted with fresh King's B medium to an OD of 1.0. This medium was then centrifuged at 3000 rpm for ten minutes; the supernatant was discarded and the cells were resuspended in 10 mM MgSO4 to an OD of 0.20. To this inoculum, 0.01 v/v % Silwet 77 surfactant was added.
Whole tomato plants were inoculated by briefly dipping them in a beaker of the aforementioned inoculum. After dipping, plants were placed back in the sealed cloche for 12 hours. […]
Due to the difference in disease progression, two different scoring systems were used. In the first experiment, the number of lesions per plant was counted three days after inoculation and the percentage of leaf area covered by lesions was quantified using the ImageJ software after seven days. In the second experiment, each fully developed leaf was scored on a disease scale between 0 and 4 as follows: 0=no visible symptoms; 1=isolated lesions; 2=large lesions, covering <50% of leaf area; 3=lesions covering more than half of the leaf area; 4=leaf irreversibly shriveled or abscised. […]

Compound: O=C(O)c1ccc2c(c1)OCO2 [PA, Piperonylic acid]
- mean percentage of leaf area covered by lesions (first experiment, after seven days): reduced
- change of total number of lesions per plant (first experiment, three days after inoculation, vs control): −25%
- reduction of mean plant disease index (second experiment, scale 0 to 4): 20%
